From patent US20110086884A1, “BARIUM SALT OF BENZIMIDAZOLE DERIVATIVE” (priority 2003, published 2011)

Test: hygroscopicity of the solid salt
Format: physicochemical
Conditions: both crystalline and amorphous forms

hygroscopicity: non-hygroscopic
Structure (SMILES): COc1ccc2[nH]c([S@@+]([O-])Cc3ncc(C)c(OC)c3C)nc2c1 [(S)-omeprazole barium, (S)-5-methoxy-2-[[(4-methoxy-3,5-dimethyl-2-pyridinyl)-methyl]sulfinyl]-1H-benzimidazole]
